According to ChEMBL document CHEMBL1201862, “PubChem BioAssay data set” (2004):
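Five concentrations, 48 hours, 96-well plates. GI50 is the concentration that inhibits growth by half.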 Activity calls are given as the source filed them. Rule as the data show it: active = GI50 up to about 1.1 µM and inactive = higher.

Assays:
Assay in all cases: NCI-60 cell line screen, 48 h
[1] = system: UACC-62
[2] = system: A498
[3] = system: Malme-3M
[4] = system: UACC-257
[5] = system: PC-3
[6] = system: EKVX
[7] = system: SR
[8] = system: RXF 393
[9] = system: HCT-116
[10] = system: IGROV-1
[11] = system: U-251
[12] = system: HT-29
[13] = system: SK-MEL-2
[14] = system: T47D
[15] = system: MOLT-4
[16] = system: OVCAR-3
[17] = system: SNB-75
[18] = system: NCI/ADR-RES
[19] = system: 786-0
[20] = system: SK-OV-3

Row | Compound | GI50 [1] | GI50 [2] | GI50 [3] | GI50 [4] | GI50 [5] | GI50 [6] | GI50 [7] | GI50 [8] | GI50 [9] | GI50 [10] | GI50 [11] | GI50 [12] | GI50 [13] | GI50 [14] | GI50 [15] | GI50 [16] | GI50 [17] | GI50 [18] | GI50 [19] | GI50 [20]
1 | Nc1ccccc1C(=O)NC(=O)Nc1ccc(Oc2ncc(Br)cn2)c(Cl)c1 | < 0.01 µM (active) | < 0.01 µM (active) | < 0.01 µM (active) | < 0.0259 µM (active) | < 0.01 µM (active) | 0.247 µM (active) | < 0.01 µM (active) | 0.0261 µM (active) | < 0.01 µM (active) | < 0.0118 µM (active) | < 0.01 µM (active) | < 0.01 µM (active) | < 0.0929 µM (active) | 51.8 µM (inactive) | < 0.01 µM (active) | < 0.01 µM (active) | < 0.01 µM (active) | < 0.01 µM (active) | < 0.01 µM (active) | < 0.01 µM (active)
2 | O=C1NC2c3c(I)sc(I)c3C(O)C2O1 (stereo not given) | > 100 µM (inactive) | > 100 µM (inactive) | > 100 µM (inactive) | > 100 µM (inactive) | > 100 µM (inactive) | > 100 µM (inactive) | > 100 µM (inactive) | > 100 µM (inactive) | > 100 µM (inactive) | > 100 µM (inactive) | > 100 µM (inactive) | > 100 µM (inactive) | > 100 µM (inactive) | > 100 µM (inactive) | > 100 µM (inactive) | > 100 µM (inactive) | > 100 µM (inactive) | > 100 µM (inactive) | > 100 µM (inactive) | > 100 µM (inactive)
3 | FC(F)(F)c1ccc2c(c1)nc(Cc1ccccc1)n2C[C@@H]1CCCN2CCCCC12 (stereo not given in full) | 16.7 µM (inactive) | 15.5 µM (inactive) | 15.2 µM (inactive) | 14.7 µM (inactive) | 14.3 µM (inactive) | 8.47 µM (inactive) | 10.1 µM (inactive) | 8.55 µM (inactive) | 14.1 µM (inactive) | 12.9 µM (inactive) | 15.7 µM (inactive) | 12 µM (inactive) | 16.3 µM (inactive) | 14.4 µM (inactive) | 12.9 µM (inactive) | 14.8 µM (inactive) | 15.1 µM (inactive) | 15.1 µM (inactive) | 13.9 µM (inactive) | 17.5 µM (inactive)
4 | O=C1c2ccccc2CC12Cc1ccc3c(c1C2=O)CCCC3 (stereo not given) | 8.2 µM (inactive) | 23.7 µM (inactive) | 82.2 µM (inactive) | > 100 µM (inactive) | 66.7 µM (inactive) | > 100 µM (inactive) | 2.87 µM (inactive) | 4.13 µM (inactive) | 3.57 µM (inactive) | 4.71 µM (inactive) | 35.2 µM (inactive) | 6.49 µM (inactive) | > 100 µM (inactive) | 1.39 µM (inactive) | 4.35 µM (inactive) | 12.6 µM (inactive) | 6.52 µM (inactive) | 7.06 µM (inactive) | 7.85 µM (inactive) | > 100 µM (inactive)
5 | COc1ccc(/N=c2\ssc(C(=S)Nc3ccc(OC)cc3)c2S)cc1 | > 100 µM (inactive) | > 100 µM (inactive) | > 100 µM (inactive) | > 100 µM (inactive) | > 100 µM (inactive) | > 100 µM (inactive) | > 100 µM (inactive) | > 100 µM (inactive) | 88.1 µM (inactive) | > 100 µM (inactive) | 75.7 µM (inactive) | > 100 µM (inactive) | > 100 µM (inactive) | > 100 µM (inactive) | > 100 µM (inactive) | > 100 µM (inactive) | > 100 µM (inactive) | > 100 µM (inactive) | > 100 µM (inactive) | > 100 µM (inactive)
6 | C/C=C(\C)C(=O)OC1/C=C(\C)CC/C=C(\C)CC2OC(=O)C(C)(OC(C)=O)C12 (stereo not given) | > 100 µM (inactive) | > 100 µM (inactive) | > 100 µM (inactive) | > 100 µM (inactive) | > 100 µM (inactive) | > 100 µM (inactive) | > 100 µM (inactive) | > 100 µM (inactive) | > 100 µM (inactive) | > 100 µM (inactive) | > 100 µM (inactive) | > 100 µM (inactive) | > 100 µM (inactive) | > 100 µM (inactive) | > 100 µM (inactive) | > 100 µM (inactive) | > 100 µM (inactive) | > 100 µM (inactive) | > 100 µM (inactive) | > 100 µM (inactive)
7 | C[C@]12C=CC(=O)C=C1CC[C@@H]1[C@@H]2CC[C@]2(C)OC(=O)CC[C@@H]12 [TESTOLACTONE] | 323 µM (inactive) | 347 µM (inactive) | 480 µM (inactive) | 389 µM (inactive) | > 500 µM (inactive) | 318 µM (inactive) | 318 µM (inactive) | 437 µM (inactive) | > 466 µM (inactive) | 453 µM (inactive) | > 500 µM (inactive) | > 493 µM (inactive) | > 478 µM (inactive) | > 337 µM (inactive) | 375 µM (inactive) | 479 µM (inactive) | 292 µM (inactive) | > 492 µM (inactive) | > 500 µM (inactive) | > 479 µM (inactive)
